Like-named read-outs stand apart in the source and are kept apart here.

For one test, the system named is MV-4-11 cells. The test is described as follows: Cell growth inhibition assay (CellTiter-Glo), MV-4-11. The class given is cell-based. The following applies: Homo sapiens, MV4-11. Put shortly:
(§1)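 Leukemia lines grown in their own media were exposed for 4 days at 37° C. to 3-fold serial dilutions from 10 μM (0.1% DMSO). Viability by CellTiter-Glo ATP luminescence, corrected for background and day-0 plate; IC50 and TGI from four-parameter fit against vehicle (100%) and medium (−100%).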
(In general: Cellular ATP, detected with luciferase, serves as a proxy for viable cell number.)

In another test the test system is K-562 cells. Description: Cell growth inhibition assay (CellTiter-Glo), K-562. The class given is cell-based, human. Put shortly:
as §1

A further test relates to THP-1 cells. Description: Cell growth inhibition assay (CellTiter-Glo), THP-1. The following applies: Homo sapiens. The class given is cell-based. Put shortly: as §1

What is called GI50 is the concentration giving 50% growth inhibition. Low readings indicate greater sensitivity of the cells, high ones lower sensitivity of the cells. In the case of `COCc1nn(C2CC2)c2c1C(c1ccc(Cl)cc1)N(c1cc(C)c(=O)n(C)c1)C2=O` (racemic) [Example 132, 4-(4-chlorophenyl)-1-cyclopropyl-5-(1,5-dimethyl-6-oxo-1,6-dihydropyridin-3-yl)-3-(methoxymethyl)-4,5-dihydropyrrolo[3,4-c]pyrazol-6(1H)-one], the GI50 in the test on MV-4-11 cells turned out to be 0.0523 µM; in the test with K-562 cells (Homo sapiens, K562), 0.427 µM; with THP-1 cells, 0.107 µM. The IC (TGI) in the test on MV-4-11 cells was 0.0995 µM; in the test with K-562 cells (Homo sapiens, K562), greater than 10 µM; in the test with THP-1 cells it was 0.233 µM.
In the case of `CCc1nn(CCO)c2c1C(c1ccc(Cl)cc1)N(c1cc(C)c3onc(C)c3c1)C2=O` (centres unmarked) [Example 79, 4-(4-chlorophenyl)-5-(3,7-dimethylbenzo[d]isoxazol-5-yl)-3-ethyl-1-(2-hydroxyethyl)-4,5-dihydropyrrolo-[3,4-c]pyrazol-6(1H)-one], the GI50 in the test on MV-4-11 cells was 0.348 µM; with K-562 cells (Homo sapiens, K562), 0.92 µM; in the test with THP-1 cells, 0.255 µM.
Turning to `COc1ncccc1-n1nc(C)c2c1C(=O)N(c1cc(C)c3nnc(C)n3c1)C2c1ccc(F)cc1F` (centres unmarked) [Example 173, 4-(2,4-difluorophenyl)-5-(3,8-dimethyl-[1,2,4]triazolo[4,3-a]pyridin-6-yl)-1-(2-methoxypyridin-3-yl)-3-methyl-4,5-dihydropyrrolo-[3,4-c]pyrazol-6(1H)-one], the GI50 with MV-4-11 cells turned out to be 0.0571 µM; with K-562 cells (Homo sapiens, K562), 0.328 µM; with THP-1 cells, 0.0916 µM.
The matching figures for `Cc1nn(C2COC2)c2c1C(c1ccc(Cl)cc1)N(c1cc(C)c3nnc(C)n3c1)C2=O` (centres unmarked) [Example 137, 4-(4-chlorophenyl)-5-(3,8-dimethyl-[1,2,4]triazolo[4,3-a]pyridin-6-yl)-3-methyl-1-(oxetan-3-yl)-4,5-dihydropyrrolo[3,4-c]pyrazol-6(1H)-one]: 0.0231 µM, 0.248 µM and 0.064 µM.
Consider `Cc1cc(N2C(=O)c3nn(C4COC4)c(C)c3C2c2ccc(Cl)cc2)cn(C)c1=O` (centres unmarked) [Example 134, 4-(4-chlorophenyl)-5-(1,5-dimethyl-6-oxo-1,6-dihydropyridin-3-yl)-3-methyl-2-(oxetan-3-yl)-4,5-dihydropyrrolo[3,4-c]pyrazol-6(2H)-one], for which the GI50 in the test on MV-4-11 cells came to 0.117 µM; with K-562 cells (Homo sapiens, K562), 0.574 µM; in the test on THP-1 cells, 0.161 µM.
The matching figures for `COc1ncc(-n2nc(C)c3c2C(=O)N(c2cc(C)c(=O)n(C)c2)[C@@H]3c2ccc(Cl)cc2)c(OC)n1` [Example 100, (R)-4-(4-chlorophenyl)-1-(2,4-dimethoxypyrimidin-5-yl)-5-(1,5-dimethyl-6-oxo-1,6-dihydropyridin-3-yl)-3-methyl-4,5-dihydropyrrolo[3,4-c]pyrazol-6(1H)-one]: 0.0405 µM, 0.264 µM and 0.088 µM.
The matching figures for `CCn1nc2c(c1C)C(c1ccc(F)cc1F)N(c1cc(C)c3nnc(C)n3c1)C2=O` (centres unmarked) [Example 182, 4-(2,4-difluorophenyl)-5-(3,8-dimethyl-[1,2,4]triazolo[4,3-a]pyridin-6-yl)-2-ethyl-3-methyl-4,5-dihydropyrrolo-[3,4-c]pyrazol-6(2H)-one]: 0.0633 µM, 0.281 µM and 0.0876 µM.
The matching figures for `Cc1nn(C2CC2)c2c1C(c1ccc(Cl)cc1F)N(c1cc(C)c3nnc(C)n3c1)C2=O` (centres unmarked) [Example 178, 4-(4-chloro-2-fluorophenyl)-1-cyclopropyl-5-(3,8-dimethyl-[1,2,4]triazolo[4,3-a]pyridin-6-yl)-3-methyl-4,5-dihydropyrrolo[3,4-c]pyrazol-6(1H)-one]: 0.0282 µM, 0.137 µM and 0.0425 µM.
`Cc1nn(C(C)C)c2c1[C@@H](c1ccc(Cl)cc1)N(c1cc(C)c(=O)n(C)c1)C2=O` [Example 104, (R)-4-(4-chlorophenyl)-5-(1,5-dimethyl-6-oxo-1,6-dihydropyridin-3-yl)-1-isopropyl-3-methyl-4,5-dihydropyrrolo[3,4-c]pyrazol-6(1H)-one]: the GI50 in the test on MV-4-11 cells was found to be 0.00997 µM; in the test with K-562 cells (Homo sapiens, K562) it was 0.0576 µM; in the test with THP-1 cells it was 0.0262 µM. Further, the IC (TGI) with K-562 cells is reported as greater than 10 µM.
For `COc1ncc(-n2nc3c(c2C(C)C)C(c2ccc(Cl)cc2)N(c2cc(C)c4nnc(C)n4c2)C3=O)c(OC)n1` (centres unmarked) [Example 67, 4-(4-chlorophenyl)-2-(2,4-dimethoxypyrimidin-5-yl)-5-(3,8-dimethyl-[1,2,4]triazolo-[4,3-a]pyridin-6-yl)-3-isopropyl-4,5-dihydropyrrolo-[3,4-c]pyrazol-6(2H)-one], the GI50 in the test on MV-4-11 cells amounted to 0.00855 µM; with K-562 cells (Homo sapiens, K562), 0.0474 µM; with THP-1 cells, 0.0203 µM.
For `Cc1cc(N2C(=O)c3c(c(CO)nn3C3CC3)C2c2ccc(Cl)cc2)cn(C)c1=O` (centres unmarked) [Example 133, 4-(4-chlorophenyl)-1-cyclopropyl-5-(1,5-dimethyl-6-oxo-1,6-dihydropyridin-3-yl)-3-(hydroxymethyl)-4,5-dihydropyrrolo-[3,4-c]pyrazol-6(1H)-one] the same measures were 0.069 µM, 0.451 µM and 0.166 µM.
The matching figures for `Cc1nn(C2CN(C)C2)c2c1C(c1ccc(Cl)cc1)N(c1cc(C)c(=O)n(C)c1)C2=O` (centres unmarked) [Example 140, 4-(4-chlorophenyl)-5-(1,5-dimethyl-6-oxo-1,6-dihydropyridin-3-yl)-3-methyl-1-(1-methylazetidin-3-yl)-4,5-dihydropyrrolo-[3,4-c]pyrazol-6(1H)-one]: 0.106 µM, 1.37 µM and 0.392 µM.
As to `COCc1nn(C2CC2)c2c1C(c1ccc(Cl)cc1)N(c1cc(C)c3nnc(C)n3c1)C2=O` (centres unmarked) [Example 130, 4-(4-chlorophenyl)-1-cyclopropyl-5-(3,8-dimethyl-[1,2,4]triazolo[4,3-a]pyridin-6-yl)-3-(methoxymethyl)-4,5-dihydropyrrolo[3,4-c]pyrazol-6(1H)-one], the GI50 in the test with MV-4-11 cells was 0.0161 µM; with K-562 cells (Homo sapiens, K562) it was 0.195 µM; in the test with THP-1 cells it was 0.0357 µM. For the same compound, the IC (TGI) with K-562 cells is on record as greater than 10 µM.
For the compound `Cc1cc(N2C(=O)c3nn(C(C)C)c(C)c3C2c2ccc(Cl)cc2F)cn2c(C)nnc12` (centres unmarked) [Example 169, 4-(4-chloro-2-fluorophenyl)-5-(3,8-dimethyl-[1,2,4]triazolo[4,3-a]pyridin-6-yl)-2-isopropyl-3-methyl-4,5-dihydropyrrolo[3,4-c]pyrazol-6(2H)-one], the GI50 in the test on MV-4-11 cells came to 0.0311 µM; in the test with K-562 cells (Homo sapiens, K562) it was 0.276 µM; in the test with THP-1 cells, 0.0505 µM.
For `Cc1nn(C(C)C)c2c1C(c1ccc(F)cc1F)N(c1cc(C)c3nnc(C)n3c1)C2=O` (centres unmarked) [Example 174, 4-(2,4-difluorophenyl)-5-(3,8-dimethyl-[1,2,4]triazolo[4,3-a]pyridin-6-yl)-1-isopropyl-3-methyl-4,5-dihydropyrrolo[3,4-c]pyrazol-6(1H)-one], the 50% growth inhibitory concentration (GI50) in the test on MV-4-11 cells came out at 0.0267 µM; in the test on K-562 cells (Homo sapiens, K562) it was 0.158 µM; with THP-1 cells it was 0.0438 µM.
The matching figures for `CNC(=O)n1nc2c(c1C)C(c1ccc(Cl)cc1)N(c1cc(C)c(=O)n(C)c1)C2=O` (centres unmarked) [Example 144, 4-(4-chlorophenyl)-5-(1,5-dimethyl-6-oxo-1,6-dihydropyridin-3-yl)-N,3-dimethyl-6-oxo-5,6-dihydropyrrolo-[3,4-c]pyrazole-2(4H)-carboxamide]: 0.0598 µM, 0.432 µM and 0.214 µM.
The matching figures for `Cc1nn(C2CC2)c2c1C(c1cccc(OC(F)(F)F)c1)N(c1cc(C)c(=O)n(C)c1)C2=O` (centres unmarked) [Example 91, 1-cyclopropyl-5-(1,5-dimethyl-6-oxo-1,6-dihydropyridin-3-yl)-3-methyl-4-(3-(trifluoromethoxy)phenyl)-4,5-dihydropyrrolo-[3,4-c]pyrazol-6(1H)-one]: 0.633 µM, 2.68 µM and 0.908 µM.
Regarding `CCn1nc(C)c2c1C(=O)N(c1cc(C)c3nnc(C)n3c1)C2c1ccc(Cl)cc1` (centres unmarked) [Example 116, 4-(4-chlorophenyl)-5-(3,8-dimethyl-[1,2,4]triazolo[4,3-a]pyridin-6-yl)-1-ethyl-3-methyl-4,5-dihydropyrrolo-[3,4-c]pyrazol-6(1H)-one], the 50% growth inhibitory concentration (GI50) with MV-4-11 cells came to 0.0125 µM; in the test on K-562 cells (Homo sapiens, K562) it was 0.0812 µM; with THP-1 cells it was 0.0188 µM.
Take `Cc1cc(N2C(=O)c3nn(C(=O)N(C)C)c(C)c3C2c2ccc(Cl)cc2)cn(C)c1=O` (centres unmarked) [Example 141]: the concentration for 50% growth inhibition (GI50) with MV-4-11 cells was determined as 0.136 µM; with K-562 cells (Homo sapiens, K562) it was 1.19 µM; with THP-1 cells it was 0.281 µM.
The matching figures for `CCOC(=O)N1CC(n2nc(C)c3c2C(=O)N(c2cc(C)c4nnc(C)n4c2)C3c2ccc(Cl)cc2)C1` (centres unmarked) [Example 156, Ethyl 3-(4-(4-chlorophenyl)-5-(3,8-dimethyl-[1,2,4]triazolo[4,3-a]pyridin-6-yl)-3-methyl-6-oxo-5,6-dihydropyrrolo[3,4-c]pyrazol-1(4H)-yl)azetidine-1-carboxylate]: 0.0357 µM, 0.374 µM and 0.0696 µM.
`Cc1nn(C2CNC2)c2c1C(c1ccc(Cl)cc1)N(c1cc(C)c(=O)n(C)c1)C2=O` (centres unmarked) [Example 138, 1-(azetidin-3-yl)-4-(4-chlorophenyl)-5-(1,5-dimethyl-6-oxo-1,6-dihydropyridin-3-yl)-3-methyl-4,5-dihydropyrrolo[3,4-c]pyrazol-6(1H)-one]: the GI50 is 0.251 µM in the test with MV-4-11 cells; 2.06 µM in the test on K-562 cells (Homo sapiens, K562); 0.904 µM with THP-1 cells.
Consider `COCc1nn(C2CC2)c2c1[C@@H](c1ccc(Cl)cc1)N(c1cc(C)c(=O)n(C)c1)C2=O` [Example 162, (R)-4-(4-chlorophenyl)-1-cyclopropyl-5-(1,5-dimethyl-6-oxo-1,6-dihydropyridin-3-yl)-3-(methoxymethyl)-4,5-dihydropyrrolo[3,4-c]pyrazol-6(1H)-one], for which the GI50 came to 0.0418 µM in the test on MV-4-11 cells; 0.244 µM in the test with K-562 cells (Homo sapiens, K562); 0.0546 µM in the test on THP-1 cells.

The record behind these values is US20160095843A1, “PYRAZOLOPYRROLIDINE DERIVATIVES AND THEIR USE IN THE TREATMENT OF DISEASE” (NOVARTIS AG, priority 2013, published 2016).
